From patent US7763656B2, “Use of Acetylamino benzoic acid compounds for nonsense suppression and the treatment of disease” (PTC Therapeutics, Inc., priority 2002, dated 2010)
Values joined by “and” are separate entries in the source; they are usually repeats but may differ in a detail not shown here. Identical values can stand only once.

melting point | Compound
201 to 202 °C | Cc1ccc(OCC(=O)Nc2cccc(C(=O)O)c2)cc1C [Compound 1, 3-[2-(3,4-dimethyl-phenoxy)-acetylamino]-benzoic acid]
178 to 179 °C | CC(C)c1ccccc1SCC(=O)Nc1cccc(C(=O)O)c1 [Compound 3, 3-[2-(2-isopropyl-phenylsulfanyl)-acetylamino]-benzoic acid]
183 to 184 °C | Cc1cc(OCC(=O)Nc2cccc(C(=O)O)c2)cc(C(C)C)c1 [Compound 5, 3-[2-(3-isopropyl-5-methyl-phenoxy)-acetylamino]-benzoic acid]
166 to 167 °C | CC(C)c1cccc(OCC(=O)Nc2cccc(C(=O)O)c2)c1 [Compound 6, 3-[2-(3-isopropyl-phenoxy)-acetylamino]-benzoic acid]
171 to 174 °C | CC(C)c1ccc(OCC(=O)Nc2cccc(C(=O)O)c2)cc1 [Compound 7, 3-[2-(4-isopropyl-phenoxy)-acetylamino]-benzoic acid]
174 to 176 °C and 174 to 175 °C | Cc1cc(OCC(=S)Nc2cccc(C(=O)O)c2)ccc1C(C)C [Compound 8, 3-[2-(4-isopropyl-3-methyl-phenoxy)-thioacetylamino]-benzoic acid]
220 to 221 °C | Cc1ccccc1-c1ccc(OCC(=O)Nc2cccc(C(=O)O)c2)cc1 [Compound 9, 3-[2-(2’-methyl-biphen-4-yloxy)-acetylamino]-benzoic acid]
225 to 226 °C | Cc1cccc(-c2ccc(OCC(=O)Nc3cccc(C(=O)O)c3)cc2)c1 [Compound 10, 3-[2-(3’-methyl-biphen-4-yloxy)-acetylamino]-benzoic acid]
219 to 221 °C | O=C(COc1ccc(Cl)c(Cl)c1)Nc1cccc(C(=O)O)c1 [Compound 12, 3-[2-(3,4-dichlorophenoxy)-acetylamino]-benzoic acid]
245 to 246 °C | O=C(COc1ccc(-c2ccccc2)cc1)Nc1cccc(C(=O)O)c1 [Compound 13, 3-[2-(biphen-4-yloxy)-acetylamino]-benzoic acid]
164 to 165 °C | CCC(C)(C)c1ccc(OCC(=O)Nc2cccc(C(=O)O)c2)cc1 [Compound 15, 3-{2-[4-(1,1-dimethyl-propyl)-phenoxy]acetylamino)-benzoic acid]
185 to 186 °C | CCCc1ccc(OCC(=O)Nc2cccc(C(=O)O)c2)cc1 [Compound 16, 3-[2-(4-propyl-phenoxy)-acetylamino]-benzoic acid]
209 to 211 °C | CCc1ccc(OCC(=O)Nc2cccc(C(=O)O)c2)cc1 [Compound 18, 3-[2-(4-ethyl-phenoxy)-acetylamino]-benzoic acid]
203 to 204 °C | O=C(COc1ccc2c(c1)CCC2)Nc1cccc(C(=O)O)c1 [Compound 19, 3-[2-(indan-5-yloxy)-acetylamino]-benzoic acid]
199 to 201 °C | O=C(COc1ccc2c(c1)CCCC2)Nc1cccc(C(=O)O)c1 [Compound 20, 3-[2-(5,6,7,8-tetrahydro-naphthalen-2-yloxy)-acetylamino]-benzoic acid]
207 to 208 °C | CC(C)(c1ccccc1)c1ccc(OCC(=O)Nc2cccc(C(=O)O)c2)cc1 [Compound 22, 3-{2-[4-(1-methyl-1-phenyl-ethyl)-phenoxy]-acetylamino}-benzoic acid]
212 to 213 °C | O=C(COc1ccc(C2CCCC2)cc1)Nc1cccc(C(=O)O)c1 [Compound 24, 3-[2-(4-cyclopentyl-phenoxy)-acetylamino]-benzoic acid]
197 to 198 °C | Cc1cc(OCC(=O)Nc2cccc(C(=O)O)c2)ccc1Cl [Compound 25, 3-[2-(4-chloro-3-methyl-phenoxy)-acetylamino]-benzoic acid]
191 to 192 °C | CCOc1ccc(OCC(=O)Nc2cccc(C(=O)O)c2)cc1 [Compound 27, 3-[2-(4-ethoxy-phenoxy)-acetylamino]-benzoic acid]
242 to 244 °C | O=C(COc1ccc(C#Cc2ccccc2)cc1)Nc1cccc(C(=O)O)c1 [Compound 28, 3-[2-(4-phenylethynyl-phenoxy)-acetylamino]-benzoic acid]
262 to 263 °C | CC(C)c1ccc(C(=O)CC(=O)Nc2cccc(C(=O)O)c2)cc1 [Compound 29, 3-[3-(4-isopropyl-phenyl)-3-oxo-propionylamino]-benzoic acid]
161 to 162 °C | Cc1cc(OCC(=O)Nc2cccc(C(=O)O)c2Cl)ccc1C(C)C [Compound 30, 2-chloro-3-[2-(4-isopropyl-3-methyl-phenoxy)-acetylamino]-benzoic acid]
218 to 220 °C | Cc1cc(OCC(=O)Nc2cc(C(=O)O)ccc2Cl)ccc1C(C)C [Compound 31, 4-chloro-3-[2-(4-isopropyl-3-methyl-phenoxy)-acetylamino]-benzoic acid]
208 to 210 °C | O=C(COc1ccc(C(=O)c2ccccc2)cc1)Nc1cccc(C(=O)O)c1 [Compound 32, 3-[2-(4-benzoyl-phenoxy)-acetylamino]-benzoic acid]

melting point | Compound
210 to 211 °C | CC(C)c1ccc(OC2CCN(c3cccc(C(=O)O)c3)C2=O)cc1 (stereo not drawn) [Compound 33, 3-[3-(4-Isopropyl-phenoxy)-2-oxo-pyrrolidin-1-yl]-benzoic acid]
164 to 165 °C | CC(C)c1ccc(OC2CCN(c3cccc(C(=O)[O-])c3)C2=O)cc1.[Na+] (stereo not drawn) [Compound 34, 3-[3-(4-Isopropyl-phenoxy)-2-oxo-pyrrolidin-1-yl]-benzoic acid Sodium Salt]
182 to 184 °C | O=C(O)c1cccc(N2CCC(Oc3ccc4c(c3)CCC4)C2=O)c1 (stereo not drawn) [Compound 35, 3-[3-(Indan-5-yloxy)-2-oxo-pyrrolidin-1-yl]-benzoic acid]
194 to 197 °C | O=C(O)c1cccc(N2CCC(Oc3ccc4c(c3)OCO4)C2=O)c1 (stereo not drawn) [Compound 36, 3-[3-(Benzo[1,3]dioxol-5-yloxy)-2-oxo-pyrrolidin-1-yl]-benzoic acid]
175 to 178 °C | O=C(O)c1cccc(N2CCC(Oc3ccc(Oc4ccc(C(F)(F)F)cc4)cc3)C2=O)c1 (stereo not drawn) [Compound 37, 3{2-Oxo-3-[4-(4-trifluoromethyl-phenoxy)-phenoxy]-pyrrolidin-1-yl}-benzoic acid]
150 to 152 °C | CCc1cccc(OC2CCN(c3cccc(C(=O)O)c3)C2=O)c1 (stereo not drawn) [Compound 38]
185 to 187 °C | O=C(O)c1cccc(N2CCC(Oc3ccc(Oc4ccccc4)cc3)C2=O)c1 (stereo not drawn) [Compound 39, 3-[2-Oxo-3-(4-phenoxy-phenoxy)-pyrrolidin-1-yl]-benzoic acid]
211 to 213 °C | Cc1ccc(C(C)C)c(OCC(=O)Nc2cccc(C(=O)O)c2)c1 [Compound 40, 3-[2-(2-Isopropyl-5-methyl-phenoxy)-acetylamino]-benzoic acid]
161 to 163 °C | Cc1ccc(C(C)C)c(OC(C)C(=O)Nc2cccc(C(=O)O)c2)c1 (stereo not drawn) [Compound 41, 3-[2-(2-Isopropyl-5-methyl-phenoxy)-propionylamino]-benzoic acid]
200 to 201 °C | Cc1cccc(OCC(=O)Nc2cccc(C(=O)O)c2)c1 [Compound 42, 3-[2-(5-Methyl-phenoxy)-acetylamino]-benzoic acid]
168 to 170 °C | CC(C)c1ccccc1OCC(=O)Nc1cccc(C(=O)O)c1 [Compound 43, 3-[2-(2-Isopropyl-phenoxy)-acetylamino]-benzoic acid]
253 to 255 °C | COc1ccc(C(=O)O)cc1NC(=O)COc1cc(C)ccc1C(C)C [Compound 44, 3-[2-(2-Isopropyl-5-methyl-phenoxy)-acetylamino]-4-methoxy-benzoic acid]
211 to 213 °C | Cc1ccc(C(C)C)cc1OCC(=O)Nc1cccc(C(=O)O)c1 [Compound 45, 3-[2-(5-Isopropyl-2-methyl-phenoxy)-acetylamino]-benzoic acid]
186 to 187 °C | Cc1cc(OC(C)C(=O)Nc2cccc(C(=O)O)c2)ccc1C(C)C (stereo not drawn) [Compound 47, 3-[2-(4-Isopropyl-3-methyl-phenoxy)-propionylamino]-benzoic acid]
188 to 189 °C | Cc1ccc(C(=O)O)cc1NC(=O)COc1ccc(C(C)C)c(C)c1 [Compound 48, 3-{2-(4-Isopropyl-3-methyl-phenoxy)-acetylamino]-4-methyl-benzoic acid]
260 to 261 °C | O=C(COc1ccc(C(=O)O)cc1)Nc1cccc(C(=O)O)c1 [Compound 50, 3-[2-(4-Carboxy-phenoxy)-acetylamino]-benzoic acid]
223 to 224 °C | O=C(COc1ccc2ccccc2c1)Nc1cccc(C(=O)O)c1 [Compound 52, 3-[2-(Naphthalen-2-yloxy)-acetylamino]-benzoic acid]
191 to 194 °C | O=C(COc1ccc2c(c1)OCO2)Nc1cccc(C(=O)O)c1 [Compound 53, 3-[2-(Benzo[1,3]dioxol-5-yloxy)-acetylamino]-benzoic acid]
242 to 244 °C | O=C(COc1ccc(Cl)c(F)c1)Nc1cccc(C(=O)O)c1 [Compound 54, 3-[2-(4-Chloro-3-fluoro-phenoxy)-acetylamino]-benzoic acid]
209 to 212 °C | O=C(COc1ccc(CO)cc1)Nc1cccc(C(=O)O)c1 [Compound 55, 3-[2-(4-Hydroxymethyl-phenoxy)-acetylamino]-benzoic acid]
101 to 103 °C | Cc1cc(OCC(=O)Nc2ccc(O)c(C(=O)O)c2)ccc1C(C)C [Compound 56, 2-Hydroxy-5-[2-(4-isopropyl-3-methyl-phenoxy)-acetylamino] benzoic acid]
174 to 175 °C | Cc1cc(OCC(=O)Nc2ccc(Cl)c(C(=O)O)c2)ccc1C(C)C [Compound 57, 2-Chloro-5-[2-(4-isopropyl-3-methyl-phenoxy)-acetylamino]-benzoic acid]
200 to 208 °C | Cc1cc(OCC(=O)Nc2cc(F)c(F)c(C(=O)O)c2F)ccc1C(C)C [Compound 58, 2,3,6-Trifluoro-5-[2-(4-isopropyl-3-methyl-phenoxy)-acetylamino]-benzoic acid]

Compound | melting point
Cc1cc(OCC(=O)Nc2cccc(C(=O)O)c2)ccc1C(C)C [Compound 4, 3-[2-(4-isopropyl-3-methyl-phenoxy)-acetylamino]-benzoic acid] | 191 to 192 °C and 188 to 189 °C
